IC50 data for 14 compounds are collected here from US7704995B2 (Exelixis, Inc., priority 2003, dated 2010).

Each structure is given as a SMILES string. pIC50: −log10 of the molar value.

One may read the pIC50 as the IC50 on a negative log10 scale, so that one unit is a factor of ten.

One assay addresses T1, Chk1 (Homo sapiens, UniProt O14757).
T1 construct: purchased Upstate Biotechnology
T1 sequence (O14757 1-476): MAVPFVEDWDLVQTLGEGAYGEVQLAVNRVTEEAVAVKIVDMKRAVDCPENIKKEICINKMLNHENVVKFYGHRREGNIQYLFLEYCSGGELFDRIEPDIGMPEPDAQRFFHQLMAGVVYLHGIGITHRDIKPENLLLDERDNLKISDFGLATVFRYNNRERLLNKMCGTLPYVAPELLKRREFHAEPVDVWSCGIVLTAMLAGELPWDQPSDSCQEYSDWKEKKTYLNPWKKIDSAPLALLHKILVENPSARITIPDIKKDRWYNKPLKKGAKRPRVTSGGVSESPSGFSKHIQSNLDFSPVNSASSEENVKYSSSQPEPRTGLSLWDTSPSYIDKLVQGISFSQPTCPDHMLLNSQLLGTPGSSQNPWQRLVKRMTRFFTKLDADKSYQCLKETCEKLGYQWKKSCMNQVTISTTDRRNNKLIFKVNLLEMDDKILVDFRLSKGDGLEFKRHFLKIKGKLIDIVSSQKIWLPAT
Kind of assay: Chk1 kinase assay: incorporation of γ-33P ATP into immobilized myelin basic protein. Format: biochemical. The conditions noted are these: Table 11, Chk1 only; class symbols A-D; read-out: Chk1 IC50. In outline:
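Immobilized-MBP radiometric kinase assay, room temperature for 1 h; ATP 10 μM (Chk1, 10 nM enzyme) or 30 μM (Chk2, 20 nM enzyme) with 33P tracer. Values are IC50s, with Ki derived from them.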
Consider `COc1ccc(CC(=O)Nc2cccc(-c3cnc(N)c(C(=O)N[C@H]4CCCNC4)n3)c2)cc1` [Example 977, 3-amino-6-[3-({[4-(methyloxy)phenyl]acetyl}amino)phenyl]-N-[(3S)-piperidin-3-yl]pyrazine-2-carboxamide], for which the pIC50 is more than 7.30. In the case of `Nc1ncc(-c2cccc(CNC(=O)c3ccc(Cl)cc3)c2)nc1C(=O)N[C@H]1CCCNC1` [Example 884, 3-amino-6-[3-({[(4-chlorophenyl)carbonyl]amino}methyl)phenyl]-N-[(3S)-piperidin-3-yl]pyrazine-2-carboxamide], the pIC50 is more than 7.30.

The assay is the same for the next values; noted with them: Table 11; Chk1 only; read-out: Chk1 IC50.
As to `COc1ccc(CNC(=O)c2cccc(-c3cnc(N)c(C(=O)N[C@H]4CCNC4)n3)c2)cc1` [Example 743, 3-amino-6-{3-[({[4-(methyloxy)phenyl]methyl}amino)carbonyl]phenyl}-N-[(3S)-pyrrolidin-3-yl]pyrazine-2-carboxamide], the pIC50 is 6.00 to 7.30. For `Nc1ncc(-c2cccc(CO)c2)nc1-c1nnc[nH]1` [Example 535, {3-[5-amino-6-(4H-1,2,4-triazol-3-yl)pyrazin-2-yl]phenyl}methanol], the pIC50 is 5.00 to 6.00. Turning to `Nc1ncc(-c2cccc(CN[C@H]3CCc4ccccc43)c2)nc1C(=O)NCCc1ccccc1` [Example 545, 3-amino-6-(3-{[(1S)-2,3-dihydro-1H-inden-1-ylamino]methyl}phenyl)-N-(2-phenylethyl)pyrazine-2-carboxamide], the pIC50 was 5.00 to 6.00. As for `Nc1ncc(-c2cccc(C(=O)NCc3ccccc3)c2)nc1/C=N/NCc1ccccc1` [Example 675, 3-(5-amino-6-{(E)-[(phenylmethyl)hydrazono]methyl}pyrazin-2-yl)-N-(phenylmethyl)benzamide], the pIC50 is not above 5.00. Same read-out and setting: the figure for `CCNc1ncc(-c2cccc(C(=O)NCc3ccccc3)c2)nc1C(=O)N[C@H]1CCN(CC)C1` [Example 699, 3-(ethylamino)-N-[(3S)-1-ethylpyrrolidin-3-yl]-6-(3-{[(phenylmethyl)amino]carbonyl}phenyl)pyrazine-2-carboxamide] is not above 5.00. With `N=C(NNc1ccncc1)c1nc(-c2cccc(C(=O)N[C@@H]3CCc4ccccc43)c2)cnc1N` [Example 748, 3-{5-amino-6-[imino(2-pyridin-4-ylhydrazino)methyl]pyrazin-2-yl}-N-[(1R)-2,3-dihydro-1H-inden-1-yl]benzamide], the pIC50 is 5.00 to 6.00. As for `CNC(=O)c1cc(-c2cccc(CNC3CCc4cc(F)cc(F)c43)c2)cnc1N` (centres unmarked) [Example 524, 2-amino-5-(3-{[(5,7-difluoro-2,3-dihydro-1H-inden-1-yl)amino]methyl}phenyl)-N-methylpyridine-3-carboxamide], the pIC50 is 6.00 to 7.30. Same read-out and setting: with `CC(=O)NCCNC(=O)c1nc(-c2cccc(C(=O)NCc3ccccc3)c2)cnc1N` [Example 661, N-[2-(acetylamino)ethyl]-3-amino-6-(3-{[(phenylmethyl)amino]carbonyl}phenyl)pyrazine-2-carboxamide] the figure was 5.00 to 6.00.

The same assay, now with this note: read-out: Chk1 IC50.
With `CNC(=O)c1nc(-c2cccc(OCCN3CCc4ccccc4C3)c2)cnc1N` [Example 194, 3-amino-6-(3-{[2-(3,4-dihydroisoquinolin-2(1H)-yl)ethyl]oxy}phenyl)-N-methylpyrazine-2-carboxamide], the pIC50 was 6.00 to 7.30. For the compound `CNC(=O)c1nc(-c2cccc(C(=O)NCC3CCN(Cc4ccccc4)C3)c2)cnc1N` (centres unmarked) [Example 394, 3-amino-N-methyl-6-{3-[({[1-(phenylmethyl)pyrrolidin-3-yl]methyl}amino)carbonyl]phenyl}pyrazine-2-carboxamide], the pIC50 was 6.00 to 7.30. The same measure, in the same setting: the figure for `CNC(=O)c1nc(-c2ccc(OC)c(C(=O)NCc3ccccc3)c2)cnc1N` [Example 348, 3-amino-N-methyl-6-(4-(methyloxy)-3-{[(phenylmethyl)amino]carbonyl}phenyl)pyrazine-2-carboxamide] is 6.00 to 7.30; for `CNC(=O)c1nc(-c2ccncc2)cnc1N` [Example 269, 3-amino-N-methyl-6-pyridin-4-ylpyrazine-2-carboxamide] it is 5.00 to 6.00.
